“Also recorded” adds a separate entry of the source.
Assays:
[1] = predominantly organic medium; cited from earlier work
[2] = aqueous medium at RT; cited from earlier work
[3] = Selectivity towards various metal ions by absorption and emission spectra
Method: To check the selectivity of Receptor L1 towards various metal ions like Li^+, Na^+, K^+, Cs^+, Mg^2+, Ca^2+, Ba^2+, Sr^2+, Zn^2+, Co^3+, Cu^2+, Ni^2+, Fe^2+, Pb^2+, Hg^2+ change in electronic as well as emission spectra were examined in 0.32 mM Triton X 100 in tris (5 mM, 25 mM NaCl) buffer medium at PH 7.2.
However only in presence of Cr^3+, a strong absorption band at 562 nm and intense emission band at 583 nm (for λext=530 nm) are observed. These changes are also associated with simultaneous visually detectable change in solution colour from colourless to pink red.
A solution of the perchlorate salts of the respective ion (Li^+, Na^+, K^+, Cs^+, Ca^2+, Mg^2+, Ba^2+, Sr^2+, Fe^2+, Ni^2+, Co^2+, Cu^2+, Mn^2+, Cd^2+, Pb^2+, Ba^2+, Zn^2+, Sr^2+, Hg^2+ and Cr^3+) and nitrate salts of lanthanides ions (Tb^3+, Ho^3+, Ce^3+, Sm^3+, Rb^+, Pr^3+, Eu^3+, Gd^3+, Nd^3+, Dy^3+, Tm^3+, Er^3+, Yb^3+) in pure aqueous medium were used for all studies. The effective final concentrations of all metal salts were maintained at 1.62×10^−4 M.
A stock solution of the receptor L1 (6.9×10^−4 M) was prepared in acetonitrile medium and 57 μL of this stock solution was added to 2.5 ml of 0.4 mM TX100 in Tris-HCL aqueous buffer medium having solution pH 7.2 to make the effective ligand concentration of 1.59×10^−5 M. The solution was used for all the photophysical studies. […]

[4] = Uv-vis and emission titrations in acetonitrile medium; format: binding
Method: (§1) To envisage the adverse role of high solvation enthalpy of Cr(III) in aqueous medium, similar Uv-vis and emission titrations were carried out in acetonitrile medium using ([Cr(III)]=(0-1.93×10^−4)M; and [L1]=(1.59×10^−5 M) in CH3CN) and the evaluated formation constant for Cr^3+.L1 in acetonitrile was (Ka^Abs=(1.1±0.03)·10^6 M^−1, Ka^Ems=(1.0±0.02)·10^6 M^−1 using λExt: 530 nm and λMon: 583 nm for emission titration). The binding affinity of L1 towards Cr^3+ was evaluated as Ka^ITC=(1.6±0.02)·10^6 M^−1 in acetonitrile medium at 25° C. using ITC experiments. […] Thermodynamic parameters were obtained from ITC studies (ΔG (−(8.48±0.02) kcal mol^−1), ΔH ((−20.8±0.4) kcal mol^−1) and ΔS (−41.4±0.05) cal mol^−1) (all symbols are used according to standard terminology).

[5] = Emission (fluorescence) spectral titration with B-H plot in aqueous Triton X 100 / Tris buffer pH 7.2; format: binding
Method: (§2) The association constant (Kabs) of 2.4×10^3 M^−1 for the L1-Cr^3+ formation is evaluated from the absorption titration and B-H plot data (FIG. 3). A good linear fit data supported the 1:1 binding stoichiometry. For emission titration, a significant increase in emission intensity at 583 nm is observed with an increase in concentration of Cr^3+ in aqueous medium. […] The 1:1 binding stoichiometry is further confirmed from Jobs plot and presence of signal for m/z at 616.87 (Calc 616.75) in FAB-MS analysis of a mixture of L1 (1.59×10^-5 M) and (9.5×10^−5 M) Cr(ClO4)3 for [L1+Cr^3+].
(§3) A stock solution of the receptor L1 (6.9×10^−4 M) was prepared in acetonitrile medium and 57 μL of this stock solution was added to 2.5 ml of 0.4 mM TX100 in Tris-HCL aqueous buffer medium having solution pH 7.2 to make the effective ligand concentration of 1.59×10^−5 M. The solution was used for all the photophysical studies. Cr^3+ stock solution (4.75×10^−3 M) was prepared in pure aqueous medium and was used for all studies. Emission titrations were also performed as a function of [TX100](0.1 mM, 0.23 mM, 0.32 mM, 0.4 mM, 0.6 mM) in Tris-HCl buffer medium of pH 7.2 by monitoring the increase in emission intensity (using λExt=530 nm, λMon=583 nm and slit width 2/2 nm) on binding of L1 to Cr^3+ for optimizing the maximum enhancement of the emission intensity. The relative fluorescence quantum yields (t) were estimated using equation 1 for different concentration of TX100 (0.1 mM, 0.23 mM, 0.32 mM, 0.4 mM, 0.6 mM) in Tris-HCl buffer medium (having solution pH of 7.2) and by using the Rhodamine B (φf=0.3 in aqueous medium at RT) as a reference. φf=φf′(Isample/Istd)(Astd/Asample)(η^2sample/η^2std) Eq. 1 where, φf′ was the absolute quantum yield for the rhodamine B and was used as reference; Isample and Istd are the integrated emission intensities; Asample and Astd are the absorbances at the excitation wavelength, and ηsample and ηstd are the respective refractive indices. Computational Methodology:
(§4) Formation of Cr^3+.L1 was also confirmed from the result “Formation of Cr3+.L1 was also confirmed from the result of FAB MS study. Signal at m/z value of 616.87 (Calc 616.75) for Cr3+.L1”.
3.28×10^−3 M Cr(III) solution in water is prepared and then it is gradually added to a solution of the ligand L1, where effective ligand concentration is 1.59×10^−5 M in a Tris buffer with solution pH of 7.2 having 0.32 mM Triton X 100. Uv-vis and luminescence spectra are recorded in absence and presence of [Cr(III)]. In emission spectra a 200 fold increase in spectral intensity at 583 nm (λext=530 nm and slit 2/2) is observed, while a simultaneous change in solution colour is observed from colourless to pink red (please refer to FIGS. 4 and 6).

[6] = Absorption (UV-Vis) spectral titration with B-H plot in aqueous Triton X 100 / Tris buffer pH 7.2; format: binding
Method: as §2, §3, §4

[7] = Relative fluorescence quantum yield w.r.t. Rhodamine B; format: physicochemical; settings: with Cr^3+
Method: as §3, with “indices.” for “indices. Computational Methodology:”

[8] = Isothermal Titration Calorimetry (ITC) in acetonitrile at 25° C.; format: binding
Method: FIG. 10 depicts Isothermal Titration Calorimetry (ITC) titration profile for the binding of Cr^3+ to receptor L1 at 25° C. in acetonitrile; Top plot: raw data for the sequential 2 μl injection of Cr^3+ (1.2×10^−3 M) into solution of L1 (2.0×10^−4 M) and bottom plot of the heat evolved (kcal per mole) of Cr^3+ added.
5.0 mM Tris-HCl aq. buffer solution was used for maintaining solution pH, unless mentioned otherwise. ESI-MS measurements were performed using a Micromass QTof-Micro instrument. FT-IR spectra were recorded as KBr pellets using a Perkin Elmer Spectra GX 2000 spectrometer. ^1H and ^13C NMR spectra were recorded on Bruker 500 MHz FT NMR (model: Avance-DPX 500). Electronic spectra were recorded with a Varian Cary 500 Scan UV-Vis-NIR Spectrophotometer, Isothermal Titration Calorimetry studies were performed in Microcal iTC200, while emission spectra were recorded using either Edinburgh Instrument Xe-900 Spectrofluorometer or PTI. For all spectroscopic studies in aqueous buffer medium as well as for studies with plant/algal cells, L1 self-assembled inside the miceller structure of TX100 was used, unless mentioned otherwise.
as §1

[9] = [Triton X 100] 0.23 mM, aqueous medium
[10] = [Triton X 100] 0.32 mM, Tris buffer pH 7.2

O=c1ccc2cc(/N=C/c3c4ccccc4cc4ccccc34)ccc2o1 [Receptors 3]
Selectivity towards Cr(III) [1]: high selectivity towards Cr(III)

CCN(CC)c1ccc2c(-c3ccccc3C(=O)O)c3ccc(=[N+](CC)CC)cc-3oc2c1.[Cl-] [Rhodamine B]
Fluorescence quantum yield φf (reference) [2]: 0.3

C=CCN(CC=C)CCN1C(=O)c2ccccc2C12c1ccc(N(CC)CC)cc1Oc1cc(N(CC)CC)ccc12 [Ligand L1]
Selectivity for Cr(III) over other metal ions (absorption 562 nm, emission 583 nm, colour) ([3]; Triton X 100 in Tris buffer pH 7.2, alkali, alkaline earth and transition metal ions): selective/specific for Cr (III); also recorded: no such changes are observed
Interference of Cr(VI) ([3]; pure aqueous medium): does not have any interferences of Cr(VI) at all
Ka^Abs, formation constant for Cr^3+.L1 [4]: (1.1±0.03)·10^6 M^−1
Ka^Ems, formation constant for Cr^3+.L1 ([4]; λExt 530 nm, λMon 583 nm): (1.0±0.02)·10^6 M^−1
Increase in emission spectral intensity at 583 nm on adding Cr(III) ([5]; L1 1.59×10^−5 M, 0.32 mM Triton X 100, Tris pH 7.2, λext 530 nm): 200 fold
Binding Constant, Fluorescence Spectroscopic Method [5, 9]: 2000 M⁻¹
Binding Constant, Fluorescence Spectroscopic Method [5, 10]: 2830 M⁻¹
Binding Constant, Fluorescence Spectroscopic Method ([5]; [Triton X 100] 0.4 mM, Tris pH 7.2): 3250 M⁻¹
Ka^Ems, binding constant for formation of Cr^3+.L1 ([5]; aq. buffer medium pH 7.2, emission titration, B-H plot): (3.3±0.2)·10^3 M^−1
Binding Constant, Uv-Vis Spectroscopic Method [6, 9]: 1960 M⁻¹
Binding Constant, Uv-Vis Spectroscopic Method [6, 10]: 2400 M⁻¹
Binding Constant, Uv-Vis Spectroscopic Method ([6]; [Triton X 100] 0.4 mM, aqueous medium): 3200 M⁻¹
Ka^Abs, binding constant for formation of Cr^3+.L1 ([6]; aq. buffer medium pH 7.2, absorption titration, B-H plot): 3.2±0.2)·10^3 M^−1
Quantum yield in water w.r.t. Rhodamine B ([7]; [Triton X 100] 0.23 mM): 0.185
Quantum yield in water w.r.t. Rhodamine B ([7]; [Triton X 100] 0.32 mM): 0.211
Quantum yield in water w.r.t. Rhodamine B ([7]; [Triton X 100] 0.4 mM): 0.22
Ka^ITC, binding affinity towards Cr^3+ [8]: (1.6±0.02)·10^6 M^−1
ΔH of binding ([8]; ITC): -20.8 ± 0.4 kcal/mol
ΔS of binding ([8]; ITC): -41.4 ± 0.05 cal/(mol·K)

Source: patent publication US9823232B2, “Ligand for detection of chromium (III) and a process for the preparation thereof” (COUNCIL OF SCIENTIFIC & INDUSTRIAL RESEARCH, priority 2013, dated 2017)
